Here are results for twelve molecules from patent US20060035838A1, “Drug therapy for celiac sprue” (The Board of Trustees of the Leland Stanford Junior …, priority 2002, published 2006).

Data set [1] has as its target T1, recombinant human tissue transglutaminase (Homo sapiens, UniProt P21980).
T1 sequence (P21980 1-687): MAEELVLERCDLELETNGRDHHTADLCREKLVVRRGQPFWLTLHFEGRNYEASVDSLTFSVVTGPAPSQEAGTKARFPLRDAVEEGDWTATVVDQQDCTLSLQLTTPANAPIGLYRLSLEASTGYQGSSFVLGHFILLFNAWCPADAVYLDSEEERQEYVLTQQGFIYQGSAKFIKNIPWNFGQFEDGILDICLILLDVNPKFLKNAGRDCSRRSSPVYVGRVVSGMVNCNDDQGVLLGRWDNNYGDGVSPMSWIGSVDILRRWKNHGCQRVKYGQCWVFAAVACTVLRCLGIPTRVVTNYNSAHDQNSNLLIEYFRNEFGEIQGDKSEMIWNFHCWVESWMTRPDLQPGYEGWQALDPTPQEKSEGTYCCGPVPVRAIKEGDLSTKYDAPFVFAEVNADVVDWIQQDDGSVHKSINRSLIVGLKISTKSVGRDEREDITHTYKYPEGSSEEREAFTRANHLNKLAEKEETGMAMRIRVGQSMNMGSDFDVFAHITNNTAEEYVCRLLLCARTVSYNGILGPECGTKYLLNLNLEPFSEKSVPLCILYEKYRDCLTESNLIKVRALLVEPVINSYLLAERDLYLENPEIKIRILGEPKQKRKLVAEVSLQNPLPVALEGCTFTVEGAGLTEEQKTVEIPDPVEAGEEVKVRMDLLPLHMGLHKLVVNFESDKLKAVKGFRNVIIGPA
The experiment in a line: Inhibition of tissue transglutaminase (residual tTG activity, glutamate dehydrogenase coupled assay). The format is biochemical. Further details: made in house.

In data set [2] the target is T1, recombinant human tissue transglutaminase. The experiment in a line: Catalysis of reactive glutamine substrates by tissue transglutaminase. The following applies: read-out: KM (reactive motif Gln); X = Gln, substrate.
Substrate in data set [3]: NCCc1c[nH]cn1
The data set can be described thus: purified protein, by the assay type. The following applies: other: nucleophilic amine co-substrate.

Substrate in data set [4]: CC(C)C[C@H](NC(=O)[C@H](CCC(N)=O)NC(=O)[C@@H]1CCCN1C(=O)[C@H](CCC(N)=O)NC(=O)[C@@H]1CCCN1)C(=O)N1CCC[C@H]1C(=O)N[C@@H](Cc1ccc(O)cc1)C(=O)O
The experiment in a line: purified protein, by the assay type. Conditions: other: X = Gln, substrate; pH 7.1; 30.0 °C.

Substrate in data set [5]: CC(=O)N1CCC[C@H]1C(=O)N[C@@H](CCC(N)=O)C(=O)N1CCC[C@H]1C(=O)N[C@@H](CCC(N)=O)C(=O)N[C@@H](CC(C)C)C(=O)N1CCC[C@H]1C(=O)N[C@@H](Cc1ccccc1)C(N)=O
The data set can be described thus: purified protein, by the assay type. The following applies: other: X = Gln, substrate; pH 7.1; 30.0 °C.

Where [6] appears, read: Table 3, sulfonamides and sulfonyl hydrazides, competitive inhibition constant, read-out: inhibition constant.
Where [7] appears, read: X = acivicin, 200 mM MOPS pH 7.1, 30° C.

Like-named read-outs stand apart in the source and are kept apart here. *1 amine or outer side, *2 acyl side, *3 side chain or, on linkers, in order; H or OH if unused. Where a SMILES comes first, the peptide text is derived from it. [ ]: non-standard residue; d: D form. X1 = O=C([C@@H](N[*:1])[C@@H]1CC(Cl)=NO1)[*:2]; DON = [N-]=[N+]=CC(=O)CC[C@H](N)C(=O)O

Take `CCOC(=O)[C@H](CCS(=O)(=O)NN)NC(=O)OCc1ccccc1` [(S)-2-Benzyloxycarbonylamino-4-hydrazinosulfonyl-butyric acid ethyl ester]: the Ki in data set [1] (setting [6]) is 2.2 mM.

Turning to `CCOC(=O)[C@H](CCS(=O)(=O)NNc1ccccc1)NC(=O)OCc1ccccc1` [(S)-2-Benzyloxycarbonylamino-4-phenylhydrazinosulfonyl-butyric acid ethyl ester], the Ki in data set [1] (setting [6]) worked out at 0.13 mM.

Take `CCOC(=O)[C@H](CCS(N)(=O)=O)NC(=O)OCc1ccccc1` [(S)-2-Benzyloxycarbonylamino-4-sulfamoyl-butyric acid ethyl ester]: in data set [1] (setting [6]), the Ki is 4.4 mM.

With `CC(=O)N1CCC[C@H]1C(=O)N[C@@H](CCC(N)=O)C(=O)N1CCC[C@H]1C(=O)N[C@@H](CCC(=O)C=[N+]=[N-])C(=O)N[C@@H](CC(C)C)C(=O)N1CCC[C@H]1C(=O)N[C@@H](Cc1ccccc1)C(N)=O` [Ac—PQP—X—LPF—NH2, X=DON, Ac-Pr-Gl-Pr-DonLeu-Pr-PheNH2] (Ac-PQP[DON]LPF-NH2), in data set [1] (X = 6-diazo-5-oxo-norleucine), the “kinh (reactive motif DON)” value stood at 0.2 min⁻¹ and the “kinh/KI (reactive motif DON)” value is on record as 2.9 × 10^6 min^−1M^−1.

In the case of `COC(=O)C(CCC(=O)C=[N+]=[N-])NC(=O)OCc1ccccc1` (centres unmarked) [Cbz-X—OMe, X=DON], in data set [1] (X = 6-diazo-5-oxo-norleucine), the “kinh (reactive motif DON)” value was determined as 0.12 min⁻¹ and the “kinh/KI (reactive motif DON)” value came to 890 min^−1M^−1. In addition, the Ki in data set [1] (X = 6-diazo-5-oxo-norleucine, read-out: KI (reactive motif DON)) turned out to be 0.135 mM.

As usually defined, the Km is the concentration of substrate that gives half-maximal velocity. Take `COC(=O)[C@H](CCC(N)=O)NC(=O)OCc1ccccc1` [Cbz-X—OMe, X=Gln]: the Km in data set [2] is more than 30000 µM.

In the case of `N[C@H](C(=O)O)[C@@H]1CC(Cl)=NO1` [H—X—OH, X=Aci, acivicin, reference compound], in data set [1] (X = acivicin), the “kinh/KI (reactive motif Aci)” value was 0.17 min^−1M^−1. Also, the “kinh (reactive motif Aci)” value in data set [1] (setting [7]) is 0.015 min⁻¹. Also, the Ki in data set [1] (X = acivicin, 200 mM MOPS pH 7.1, 30° C., read-out: KI (reactive motif Aci)) was found to be 87 mM.

`[N-]=[N+]=CC(=O)CC[C@H](N)C(=O)O` [H—X—OH, X=DON, 6-diazo-5-oxo-norleucine, reference compound]: in data set [1] (X = 6-diazo-5-oxo-norleucine), the “kinh (reactive motif DON)” value was determined as 0.025 min⁻¹ and the “kinh/KI (reactive motif DON)” value was determined as 0.2 min^−1M^−1.

For `CC(C)C[C@H](NC(=O)[C@@H](NC(=O)[C@@H]1CCCN1C(=O)[C@H](CCC(N)=O)NC(=O)[C@@H]1CCCN1)[C@@H]1CC(Cl)=NO1)C(=O)N1CCC[C@H]1C(=O)N[C@@H](Cc1ccc(O)cc1)C(=O)O` [PQP—X—LPY, X=Aci, Pro-Gln-Pro-Aci-Leu-Pro-Tyr] (H-PQP[X1]LPY-OH; C-terminus assumed), in data set [1] (X = acivicin), the “kinh/KI (reactive motif Aci)” value is 18 min^−1M^−1. For the same molecule, the “kinh (reactive motif Aci)” value in data set [1] (setting [7]) is 0.014 min⁻¹.

For `NS(=O)(=O)CCC(NC(=O)OCc1ccccc1)C(=O)NCC(=O)O` (centres unmarked) [Z-Sab-Gly], in data set [1] (Table 2, Sab derivatives, reversible competitive inhibition, read-out: KI), the Ki turned out to be 8 mM.

B1: human tTGase (Homo sapiens) (protein)
chain: MAEELVLERCDLELETNGRDHHTADLCREKLVVRRGQPFWLTLHFEGRNYEASVDSLTFSVVTGPAPSQEAGTKARFPLRDAVEEGDWTATVVDQQDCTLSLQLTTPANAPIGLYRLSLEASTGYQGSSFVLGHFILLFNAWCPADAVYLDSEEERQEYVLTQQGFIYQGSAKFIKNIPWNFGQFEDGILDICLILLDVNPKFLKNAGRDCSRRSSPVYVGRVVSGMVNCNDDQGVLLGRWDNNYGDGVSPMSWIGSVDILRRWKNHGCQRVKYGQCWVFAAVACTVLRCLGIPTRVVTNYNSAHDQNSNLLIEYFRNEFGEIQGDKSEMIWNFHCWVESWMTRPDLQPGYEGWQALDPTPQEKSEGTYCCGPVPVRAIKEGDLSTKYDAPFVFAEVNADVVDWIQQDDGSVHKSINRSLIVGLKISTKSVGRDEREDITHTYKYPEGSSEEREAFTRANHLNKLAEKEETGMAMRIRVGQSMNMGSDFDVFAHITNNTAEEYVCRLLLCARTVSYNGILGPECGTKYLLNLNLEPFSEKSVPLCILYEKYRDCLTESNLIKVRALLVEPVINSYLLAERDLYLENPEIKIRILGEPKQKRKLVAEVSLQNPLPVALEGCTFTVEGAGLTEEQKTVEIPDPVEAGEEVKVRMDLLPLHMGLHKLVVNFESDKLKAVKGFRNVIIGPA
By kcat is commonly meant the number of substrate molecules converted per active site and unit of time at saturation. As to B1, in data set [3], the Km stood at 40 µM and the catalytic constant (kcat) amounted to 0.333 s⁻¹.

B2: recombinant human tissue transglutaminase (Homo sapiens) (protein)
chain: MAEELVLERCDLELETNGRDHHTADLCREKLVVRRGQPFWLTLHFEGRNYEASVDSLTFSVVTGPAPSQEAGTKARFPLRDAVEEGDWTATVVDQQDCTLSLQLTTPANAPIGLYRLSLEASTGYQGSSFVLGHFILLFNAWCPADAVYLDSEEERQEYVLTQQGFIYQGSAKFIKNIPWNFGQFEDGILDICLILLDVNPKFLKNAGRDCSRRSSPVYVGRVVSGMVNCNDDQGVLLGRWDNNYGDGVSPMSWIGSVDILRRWKNHGCQRVKYGQCWVFAAVACTVLRCLGIPTRVVTNYNSAHDQNSNLLIEYFRNEFGEIQGDKSEMIWNFHCWVESWMTRPDLQPGYEGWQALDPTPQEKSEGTYCCGPVPVRAIKEGDLSTKYDAPFVFAEVNADVVDWIQQDDGSVHKSINRSLIVGLKISTKSVGRDEREDITHTYKYPEGSSEEREAFTRANHLNKLAEKEETGMAMRIRVGQSMNMGSDFDVFAHITNNTAEEYVCRLLLCARTVSYNGILGPECGTKYLLNLNLEPFSEKSVPLCILYEKYRDCLTESNLIKVRALLVEPVINSYLLAERDLYLENPEIKIRILGEPKQKRKLVAEVSLQNPLPVALEGCTFTVEGAGLTEEQKTVEIPDPVEAGEEVKVRMDLLPLHMGLHKLVVNFESDKLKAVKGFRNVIIGPA
The term kcat/Km denotes the second-order rate constant that governs catalysis at low substrate concentration. For B2, the Km in data set [4] was 300 µM. Also, in data set [5], the Km is 400 µM, the turnover number (kcat) amounted to 0.667 s⁻¹ and the kcat/Km is 1620 M⁻¹ s⁻¹.
